In article PMC11134331, “Cell-active small molecule inhibitors validate the SNM1A DNA repair nuclease as a cancer target” (Chemical Science, 2024):

Tests used:
[1] = target: T1, SNM1A (Homo sapiens, UniProt Q6PJP8); assay: real-time fluorescence-based nuclease assay, SNM1A; format: biochemical; design: DNA encoding for the MBL and β-CASP domains of SNM1A (aa 676–1040) was cloned into the baculovirus transfer vector pFB-LIC-Bse; inferred from vector pFB-LIC-Bse and the IMAC purification; made in house; host or cells: Sf9 insect cells (baculovirus); conditions: SNM1A IC50, real-time fluorescence-based nuclease assay; resynthesised compounds
T1 sequence (Q6PJP8 676-1040): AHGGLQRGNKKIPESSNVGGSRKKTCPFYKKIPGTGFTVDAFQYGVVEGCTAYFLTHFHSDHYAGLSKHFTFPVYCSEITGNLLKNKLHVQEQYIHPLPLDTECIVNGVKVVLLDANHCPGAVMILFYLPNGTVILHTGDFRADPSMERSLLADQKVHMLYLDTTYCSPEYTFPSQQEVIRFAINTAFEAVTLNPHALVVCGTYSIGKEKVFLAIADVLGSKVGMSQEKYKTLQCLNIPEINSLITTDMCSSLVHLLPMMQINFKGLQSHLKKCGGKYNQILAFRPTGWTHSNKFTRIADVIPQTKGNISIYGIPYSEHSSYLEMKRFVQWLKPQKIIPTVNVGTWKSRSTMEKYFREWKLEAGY
Experimental: In brief, the fluorescence-based nuclease assay utilises a chemically modified 20-nucleotide ssDNA substrate with a fluorescein isothiocyanate (FITC) derived 5′-group and an internal black-hole-quencher-1 (BHQ-1), located eight nucleotides distal to the fluorescein group. In the intact substrate the BHQ-1 suppresses fluorescence, however, exonucleolytic digestion of the substrate from the 5′ end by SNM1A uncouples the BHQ-1 and FITC moieties (see Fig. 1D). Spectra were measured every 140 seconds with an increase in fluorescence indicating enzymatic activity by SNM1A (concentration: 0.1 nM).
Fluorescence-based nuclease digestion SNM1A–C assays were performed as described.[30,45] In the case of SNM1A and SNM1B, a 20-mer oligonucleotide with a 5′ FITC-conjugated-T and an internal BHQ-1 (black hole quencher) conjugated-T, eight nucleotides distal (3′) to the fluor was utilised; whereas for SNM1C a 20-mer oligonucleotide with a 5′ FITC-conjugated-T and a 3′ BHQ-1(black hole quencher) was used to capture all possible endonucleolytic incisions. Reactions (25 μL) were performed in 384 well microplates in nuclease buffer (20 mM HEPES-KOH pH 7.5, 50 mM KCl, 10 mM MgCl2, 0.5 mM TCEP, 0.05% (v/v) Triton-X, 0.1 mg mL^−1 BSA, 5% (v/v) glycerol) with SNM1A/B/C (0.1 nM SNM1A, 0.5 nM SNM1B and 1 nM SNM1C) as indicated. Proteins were incubated for 10 min at RT with the stated compound where applicable, before the reaction was initiated with the addition of 10 nM DNA substrate. […] Fluorescence spectra were measured every 140 s, for 35 min, at 37 °C. The fluorescence intensity of each well was plotted against compound concentration and fitted using a log (inhibitor) response curve using GraphPad Prism software (GraphPad Software, Inc., La Jolla, CA, USA).

[2] = target: T2, SNM1B (Homo sapiens, UniProt Q9H816); assay: gel-based nuclease assay, SNM1B; format: biochemical; conditions: 1 nM SNM1B
T2 construct: for the MBL and β-CASP domains of SNM1B (aa 1–335) into baculoviral expression vectors pFB-CT10HF-LIC; made in house; host or cells: Sf9 insect cells (baculovirus)
T2 sequence (Q9H816 1-335): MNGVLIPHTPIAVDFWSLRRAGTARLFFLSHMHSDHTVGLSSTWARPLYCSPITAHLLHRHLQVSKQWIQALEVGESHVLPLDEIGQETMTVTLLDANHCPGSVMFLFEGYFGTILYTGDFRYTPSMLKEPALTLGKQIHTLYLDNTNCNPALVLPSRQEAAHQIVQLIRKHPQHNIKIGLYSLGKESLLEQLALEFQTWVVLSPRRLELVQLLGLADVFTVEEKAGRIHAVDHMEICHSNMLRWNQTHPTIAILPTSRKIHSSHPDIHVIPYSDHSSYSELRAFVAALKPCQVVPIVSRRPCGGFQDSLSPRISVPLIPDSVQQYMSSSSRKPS
From the text: To validate the inhibition of SNM1A, SNM1B, and SNM1C observed in the fluorescence-based screening assays, we then performed gel-based assays using 3′ terminally-labelled oligonucleotide substrates that enable both quantitative and qualitative (visual) assessment of the pattern of inhibition, for a subset of compounds. Importantly, whereas the fluorescence-based assay measures a single hydrolytic event at the substrate terminus, the gel-based nuclease assay informs on the pattern of digestion of the entire 51-mer substrate DNA over time.
Standard exonuclease assays were carried out in a 10 μL final volume containing 20 mM HEPES-KOH, pH 7.5, 50 mM KCl, 0.5 mM TCEP, 10 mM MgCl2, 0.05% (v/v) Triton X-100, 5% (v/v) glycerol, and SNM1 proteins as indicated. Inhibitors were dissolved in DMSO and diluted immediately prior to the reaction in the above buffer. Inhibitors were serially diluted two-fold from 100 μM. The DMSO concentration was kept constant at 0.1% (v/v) in the final reaction mixture. Inhibitors were incubated with the indicated SNM1 enzyme for 10 minutes at room temperature; reactions were initiated by addition of 10 nM DNA substrate and incubated at 37 °C for 20 min. Reactions were quenched by addition of 5 μL stop solution (95% formamide, 10 mM EDTA, 0.25% (v/v) xylene cyanol, 0.25% (v/v) bromophenol blue) and heated at 95 °C for 3 min. Reactions were analysed by 20% denaturing polyacrylamide gel electrophoresis solution of 19 : 1 acrylamide:bis-acrylamide, BioRad and 7 M urea (Sigma Aldrich) in 1 × TBE (Tris-borate EDTA) buffer. Electrophoresis was carried out at 525 V for 75 minutes; gels were subsequently fixed for 60 minutes in a 50% (v/v) methanol, 10% (v/v) acetic acid solution, and dried at 80 °C for two hours under vacuum. Dried gels were exposed to a Kodak Phosphor imager screen and scanned using a Typhoon 9500 instrument (GE Healthcare), scanned images were quantified using ImageJ.
Suppl. Figure 10. Increasing concentrations (as indicated, in μM) of compounds incubated with 1 nM SNM1B or 2.5 nM SNM1C (room temperature, 10 min), before initiating nuclease reaction by addition of ssDNA (37 °C, 20 min). Products were analysed by 20% denaturing PAGE. Gels are representative versions from a minimum of three independent experimental repeats.
(1 picture or pasted object on this page, not shown here)

C[C@H](Nc1nc(NCc2ccco2)nc2ccc(Cl)cc12)C(=O)NO [compound 19]
IC50 [1]: 44 µM
inhibition of SNM1B in gel-based assay [2]: inhibits each of SNM1A–C
